Laboratory results reported in patent US20260015358A1, “BICYCLIC DERIVATIVES, COMPOSITIONS AND USES THEREOF” (Danatlas Pharmaceuticals Co., Ltd., priority 2023, published 2026).

What was measured:
[1] = target: T1, WRN [UniPro: Q14191 (WRN_HUMAN), N500-C946] (Homo sapiens (Human), UniProt Q14191); test: WRN ATPase assay (ADP-Glo); type: biochemical; conditions: WRN enzymatic activity assay
[2] = target: T1, WRN [UniPro: Q14191 (WRN_HUMAN), N500-C946]; test: WRN unwinding assay (FORKF DNA, fluorescence); type: biochemical; conditions: Table 14

T1 sequence (Q14191 500-946): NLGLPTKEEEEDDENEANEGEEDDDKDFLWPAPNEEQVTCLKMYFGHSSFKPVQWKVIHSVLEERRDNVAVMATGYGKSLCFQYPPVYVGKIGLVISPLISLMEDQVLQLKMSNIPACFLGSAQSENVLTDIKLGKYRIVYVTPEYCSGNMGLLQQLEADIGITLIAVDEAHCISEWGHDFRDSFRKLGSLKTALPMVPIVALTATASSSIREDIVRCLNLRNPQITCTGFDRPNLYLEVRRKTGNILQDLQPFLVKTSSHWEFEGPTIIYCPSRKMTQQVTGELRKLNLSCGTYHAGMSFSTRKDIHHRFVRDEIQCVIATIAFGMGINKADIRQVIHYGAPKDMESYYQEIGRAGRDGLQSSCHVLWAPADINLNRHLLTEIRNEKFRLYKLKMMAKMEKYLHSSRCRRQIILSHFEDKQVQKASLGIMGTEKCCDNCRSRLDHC

## CCc1c(N2CCN(C(=O)CNC(=O)c3nc(C)ncc3O)CC2)c(=O)n2nc(C3=CCOCC3)nc2n1CC(=O)Nc1ccc(C(F)(F)F)cc1Cl [Example 368, N-(2-(4-(4-(2-((2-Chloro-4-(trifluoromethyl)phenyl)amino)-2-oxoethyl)-2-(3,6-dihydro-2H-pyran-4-yl)-5-ethyl-7-oxo-4,7-dihydro-[1,2,4]triazolo[1,5-a]pyrimidin-6-yl)piperazin-1-yl)-2-oxoethyl)-5-hydroxy-2-methylpyrimidine-4-carboxamide]
[1]
  IC50: < 100 nM
[2]
  IC50: < 100 nM

## CCc1c(N2CCN(C(=O)CNC(=O)c3ccns3)CC2)c(=O)n2nc(C3=CCOCC3)nc2n1CC(=O)Nc1ccc(C(F)(F)F)cc1Cl [Example 369, N-(2-(4-(4-(2-((2-Chloro-4-(trifluoromethyl)phenyl)amino)-2-oxoethyl)-2-(3,6-dihydro-2H-pyran-4-yl)-5-ethyl-7-oxo-4,7-dihydro-[1,2,4]triazolo[1,5-a]pyrimidin-6-yl)piperazin-1-yl)-2-oxoethyl) isothiazole-5-carboxamide]
[1]
  IC50: < 100 nM
[2]
  IC50: < 100 nM

## CCc1c(N2CCN(C(=O)CNC(=O)c3ccno3)CC2)c(=O)n2nc(C3=CCOCC3)nc2n1CC(=O)Nc1ccc(C(F)(F)F)cc1Cl [Example 370, N-(2-(4-(4-(2-((2-Chloro-4-(trifluoromethyl)phenyl)amino)-2-oxoethyl)-2-(3,6-dihydro-2H-pyran-4-yl)-5-ethyl-7-oxo-4,7-dihydro-[1,2,4]triazolo[1,5-a]pyrimidin-6-yl)piperazin-1-yl)-2-oxoethyl) isoxazole-5-carboxamide]
[1]
  IC50: < 100 nM
[2]
  IC50: < 100 nM

## CCc1c(N2CCN(C(=O)CNC(=O)c3ccon3)CC2)c(=O)n2nc(C3=CCOCC3)nc2n1CC(=O)Nc1ccc(C(F)(F)F)cc1Cl [Example 371, N-(2-(4-(4-(2-((2-Chloro-4-(trifluoromethyl)phenyl)amino)-2-oxoethyl)-2-(3,6-dihydro-2H-pyran-4-yl)-5-ethyl-7-oxo-4,7-dihydro-[1,2,4]triazolo[1,5-a]pyrimidin-6-yl)piperazin-1-yl)-2-oxoethyl) isoxazole-3-carboxamide]
[1]
  IC50: < 100 nM
[2]
  IC50: < 100 nM

## CCc1c(N2CCN(C(=O)CNC(=O)c3cc(N)ccc3F)CC2)c(=O)n2nc(C3=CCOCC3)nc2n1CC(=O)Nc1ccc(C(F)(F)F)cc1Cl [Example 372, 5-Amino-N-(2-(4-(4-(2-((2-chloro-4-(trifluoromethyl)phenyl)amino)-2-oxoethyl)-2-(3,6-dihydro-2H-pyran-4-yl)-5-ethyl-7-oxo-4,7-dihydro-[1,2,4]triazolo[1,5-a]pyrimidin-6-yl)piperazin-1-yl)-2-oxoethyl)-2-fluorobenzamide]
[1]
  IC50: < 100 nM
[2]
  IC50: < 100 nM

## CCc1c(N2CCN(C(=O)CNC(=O)c3cc(N)c(F)cc3F)CC2)c(=O)n2nc(C3=CCOCC3)nc2n1CC(=O)Nc1ccc(C(F)(F)F)cc1Cl [Example 373, 5-Amino-N-(2-(4-(4-(2-((2-chloro-4-(trifluoromethyl)phenyl)amino)-2-oxoethyl)-2-(3,6-dihydro-2H-pyran-4-yl)-5-ethyl-7-oxo-4,7-dihydro-[1,2,4]triazolo[1,5-a]pyrimidin-6-yl)piperazin-1-yl)-2-oxoethyl)-2,4-difluorobenzamide]
[1]
  IC50: < 100 nM
[2]
  IC50: 100 to 1000 nM

## CCNc1ccc(F)c(C(=O)NCC(=O)N2CCN(c3c(CC)n(CC(=O)Nc4ccc(C(F)(F)F)cc4Cl)c4nc(C5=CCOCC5)nn4c3=O)CC2)c1 [Example 374, N-(2-(4-(4-(2-((2-Chloro-4-(trifluoromethyl)phenyl)amino)-2-oxoethyl)-2-(3,6-dihydro-2H-pyran-4-yl)-5-ethyl-7-oxo-4,7-dihydro-[1,2,4]triazolo[1,5-a]pyrimidin-6-yl)piperazin-1-yl)-2-oxoethyl)-5-(ethylamino)-2-fluorobenzamide]
[1]
  IC50: < 100 nM
[2]
  IC50: < 100 nM

## CCc1c(N2CCN(C(=O)CNC(=O)c3ccc(F)s3)CC2)c(=O)n2nc(C3=CCOCC3)nc2n1CC(=O)Nc1ccc(C(F)(F)F)cc1Cl [Example 375, N-(2-(4-(4-(2-((2-Chloro-4-(trifluoromethyl)phenyl)amino)-2-oxoethyl)-2-(3,6-dihydro-2H-pyran-4-yl)-5-ethyl-7-oxo-4,7-dihydro-[1,2,4]triazolo[1,5-a]pyrimidin-6-yl)piperazin-1-yl)-2-oxoethyl)-5-fluorothiophene-2-carboxamide]
[1]
  IC50: < 100 nM
[2]
  IC50: < 100 nM

## CCc1c(N2CCN(C(=O)CNC(=O)c3ccno3)CC2)c(=O)n2nc(N3CCOCC3)nc2n1CC(=O)Nc1ccc(C(F)(F)F)cc1Cl [Example 376, N-(2-(4-(4-(2-((2-Chloro-4-(trifluoromethyl)phenyl)amino)-2-oxoethyl)-5-ethyl-2-morpholino-7-oxo-4,7-dihydro-[1,2,4]triazolo[1,5-a]pyrimidin-6-yl)piperazin-1-yl)-2-oxoethyl) isoxazole-5-carboxamide]
[1]
  IC50: < 100 nM
[2]
  IC50: < 100 nM

## CCc1c(N2CCN(C(=O)CNC(=O)c3ncnc(C)c3O)CC2)c(=O)n2nc(N3CCOCC3)nc2n1CC(=O)Nc1ccc(C(F)(F)F)cc1Cl [Example 377, N-(2-(4-(4-(2-((2-Chloro-4-(trifluoromethyl)phenyl)amino)-2-oxoethyl)-5-ethyl-2-morpholino-7-oxo-4,7-dihydro-[1,2,4]triazolo[1,5-a]pyrimidin-6-yl)piperazin-1-yl)-2-oxoethyl)-5-hydroxy-6-methylpyrimidine-4-carboxamide]
[1]
  IC50: < 100 nM
[2]
  IC50: < 100 nM

## CCc1c(N2CCN(C(=O)CNC(=O)c3cc(OC)ccc3F)CC2)c(=O)n2nc(C3=CCOCC3)nc2n1CC(=O)Nc1ccc(C(F)(F)F)cc1Cl [Example 378, N-(2-(4-(4-(2-((2-Chloro-4-(trifluoromethyl)phenyl)amino)-2-oxoethyl)-2-(3,6-dihydro-2H-pyran-4-yl)-5-ethyl-7-oxo-4,7-dihydro-[1,2,4]triazolo[1,5-a]pyrimidin-6-yl)piperazin-1-yl)-2-oxoethyl)-2-fluoro-5-methoxybenzamide]
[1]
  IC50: < 100 nM
[2]
  IC50: < 100 nM

## CCc1c(N2CCN(C(=O)CNC(=O)c3ccc(OC)cc3F)CC2)c(=O)n2nc(C3=CCOCC3)nc2n1CC(=O)Nc1ccc(C(F)(F)F)cc1Cl [Example 379, N-(2-(4-(4-(2-((2-Chloro-4-(trifluoromethyl)phenyl)amino)-2-oxoethyl)-2-(3,6-dihydro-2H-pyran-4-yl)-5-ethyl-7-oxo-4,7-dihydro-[1,2,4]triazolo[1,5-a]pyrimidin-6-yl)piperazin-1-yl)-2-oxoethyl)-2-fluoro-4-methoxybenzamide]
[1]
  IC50: < 100 nM
[2]
  IC50: < 100 nM

## CCc1c(N2CCN(C(=O)CNC(=O)c3ccc(NC)cc3F)CC2)c(=O)n2nc(C3=CCOCC3)nc2n1CC(=O)Nc1ccc(C(F)(F)F)cc1Cl [Example 380, N-(2-(4-(4-(2-((2-Chloro-4-(trifluoromethyl)phenyl)amino)-2-oxoethyl)-2-(3,6-dihydro-2H-pyran-4-yl)-5-ethyl-7-oxo-4,7-dihydro-[1,2,4]triazolo[1,5-a]pyrimidin-6-yl)piperazin-1-yl)-2-oxoethyl)-2-fluoro-4-(methylamino)benzamide]
[1]
  IC50: 100 to 1000 nM
[2]
  IC50: 100 to 1000 nM
